From US10392422B2, “Macrocyclic broad spectrum antibiotics” (priority 2014, dated 2019) come the findings set out here.

Experiment [1] relates to Escherichia coli MC4100 harboring the IMP4213. In words: MIC, broth micro-dilution technique (CLSI). Format: cell-based. As to conditions: for MIC: Escherichia coli, 22 h. In a few lines:
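MICs determined after 35 °C, 22 h incubation of bacteria (final OD600 0.0005) with 10-point 2-fold compound series. Series topped at 64 μg/ml in the standard protocol or 4 μg/mL in the modified one. Medium: cation-adjusted Mueller Hinton broth plus 0.002% Tween-80. E. coli MC4100 imp4213 has a permeabilized outer membrane.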
In general terms: Dilution methods test growth across graded concentrations, often in twofold steps.

In experiment [2] the test system is Methicillin Resistant Staphylococcus aureus strain USA 300 (NRS384). The experiment can be described thus: MIC, broth micro-dilution technique (CLSI). Format: cell-based. As to conditions: for MIC: Staphylococcus aureus, 22 h, read-out: MIC (μg/mL) S. aureus. In a few lines:
(§1)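 Cation-adjusted MHB + 0.002% Tween-80; 10-point 2-fold series starting 64 μg/ml (modified protocol: 4 μg/mL). Final inoculum OD600 0.0005; 35° C, 22 h. MIC per CLSI M07-A8 broth microdilution.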

In experiment [3] the test system is MRSA COL (NRS100). In words: MIC, broth micro-dilution technique (CLSI). Type of experiment: cell-based, Staphylococcus aureus. As to conditions: for MIC: Staphylococcus aureus, 22 h, read-out: MIC (μg/mL) (COL). In a few lines: as §1
For experiment [4], the system named is MRSA strain COL. The experiment can be described thus: Neutropenic thigh infection model, intravenous infusion. Format: in vivo, CD-1 mice. As to conditions: Compound 115 (Css 2 or 6.4 ug/mL) co-dosed with imipenem (Css 0.3 μg/mL), infused 23 hours; 24 hours post infection; compared with either single agent; FIG. 3. As to the method:
Jugular vein cannulated CD-1 mice were subjected to induced neutropenia (<100 cells/mm^3) by injecting 150 mg/kg and 100 mg/kg cyclophosphamide at day −5 and day −2 respectively. At day −1, saline was infused at […] for 12 hours using Harvard Apparatus PHD 2000 Infusion pumps. At day 0, mice were infected in the thigh muscle with MRSA strain COL 4×10^5 CFU/50 μL. Four test groups and one vehicle group began dosing at 1 hour post infection:
Group 1 was the vehicle control (3% HP-beta-cyclodextrin in PBS)
Group 2 was the imipenem (Imp) group dosed at a concentration of 0.21 mg/mL solution, infused at 80 μL/hour for 23 hours, with a target steady-state concentration (Css) of 0.3 μg/mL.
Group 3 was the SpsB inhibitor Compound 115 group dosed at a concentration of 2.14 mg/mL solution, infused at 80 μL/hour for 23 hours to achieve a steady state concentration (Css) of 6.4 ug/mL.
Group 4 was the SpsB inhibitor Compound 115 group dosed at 0.67 mg/mL solution (Css 2 ug/mL) co-dosed with imipenem at a concentration of 0.21 mg/mL (Css of 0.3 μg/mL) infused at 80 μL/hour for 23 hours. […]
At 24 hours post infection, bacterial burden in the thigh muscle was determined by plating the tissue homogenate in series dilutions on blood agar plates. […]

[5] abbreviates: read-out: MIC (μg/mL) E. coli, Table 1 protocol: serial 2-fold dilutions starting from 64 μg/ml, 35° C., 22 hours.
Setting [6] is: read-out: MIC (μg/mL) E. coli, Table 2 modified protocol: serial 2-fold dilutions starting from 4 μg/mL, 35° C., 22 hours.
Where [7] appears, read: Table 1 protocol: serial 2-fold dilutions starting from 64 μg/ml, 35° C., 22 hours.
Where [8] appears, read: Table 2 modified protocol: serial 2-fold dilutions starting from 4 μg/mL, 35° C., 22 hours.

In brackets after ≈: the same amount, converted by molar mass. Like-named read-outs stand apart in the source and are kept apart here.

As to `CCCCCCCCCCNCCC(=O)N[C@@H](CCCCN)C(=O)N(C)[C@@H]1C(=O)N[C@@H](C)C(=O)N[C@H](C(=O)N[C@@H](C)C(C)=O)Cc2ccc(O)c(c2)-c2cc1ccc2OCCN` [Compound 115], the MIC was 19 µg/mL (≈ 22 µM) in experiment [1] (setting [5]), 0.63 µg/mL (≈ 0.728 µM) in experiment [2] and 0.13 µg/mL (≈ 0.15 µM) in experiment [3]. The “bacterial burden in the thigh muscle” value in experiment [4] is reported as “greater reduction in bacterial burden”.

On to `COP(=O)(O)CC(=O)[C@H](C)NC(=O)[C@@H]1Cc2ccc(O)c(c2)-c2cc(ccc2O)[C@H](N(C)C(=O)[C@H](CCCCN)NC(=O)c2ccc(-c3ccc(Cl)cc3)cc2)C(=O)N[C@@H](C)C(=O)N1` [Compound 167], for which the MIC in experiment [1] (read-out: MIC (μg/mL) E. coli) is > 64 µg/mL; in experiment [2] it was 16 µg/mL (≈ 17.4 µM); in experiment [3] it was 4 µg/mL (≈ 4.35 µM).

As to `C[C@@H]1NC(=O)[C@@H](N(C)C(=O)[C@H](CCCCN)NC(=O)c2ccc(-c3ccc(C(F)(F)F)cc3)cc2)c2ccc(OCCN)c(c2)-c2cc(ccc2OCCN)C[C@@H](C(=O)O)NC1=O` [Compound 279], the MIC in experiment [1] (setting [6]) came to 0.25 µg/mL (≈ 0.285 µM); in experiment [2], 2 µg/mL (≈ 2.28 µM); in experiment [3], 0.5 µg/mL (≈ 0.571 µM).

On to `CCCCCCCCCCCCCC(=O)N[C@@H](CC)C(=O)N(C)[C@@H]1C(=O)N[C@@H](C)C(=O)N[C@H](C(=O)O)Cc2ccc(OCCN)c(c2)-c2cc1ccc2OCCN` [Compound 308], for which the MIC in experiment [1] (setting [6]) amounted to 0.094 µg/mL (≈ 0.118 µM); in experiment [2], 1 µg/mL (≈ 1.26 µM); in experiment [3], 0.38 µg/mL (≈ 0.478 µM).

On to `C[C@H](NC(=O)[C@@H]1Cc2ccc(O)c(c2)-c2cc(ccc2O)[C@H](N(C)C(=O)[C@H](CCCCN)NC(=O)c2ccc(-c3ccc(Cl)cc3)cc2)C(=O)N[C@@H](C)C(=O)N1)C(=O)Cn1ccnn1` [Compound 241], for which the MIC was found to be 16 µg/mL (≈ 17.9 µM) in experiment [1] (setting [5]), 4 µg/mL (≈ 4.48 µM) in experiment [2] (setting [7]) and 1.5 µg/mL (≈ 1.68 µM) in experiment [3] (setting [7]).

Turning to `CCCCc1ccc(-c2ccc(C(=O)N[C@@H](CCCCN)C(=O)N(C)[C@@H]3C(=O)N[C@@H](C)C(=O)N[C@H](C(=O)NCc4nnn[nH]4)Cc4ccc(O)c(c4)-c4cc3ccc4OCCN)cc2)cc1` [Compound 329], the MIC is 0.38 µg/mL (≈ 0.421 µM) in experiment [1] (read-out: MIC (μg/mL) E. coli), > 4 µg/mL in experiment [2] and 2 µg/mL (≈ 2.22 µM) in experiment [3].

On to `C[C@H](NC(=O)[C@@H]1Cc2ccc(O)c(c2)-c2cc(ccc2O)[C@H](N(C)C(=O)[C@H](CCCCN)NC(=O)c2ccc(-c3ccc(Cl)cc3)cc2)C(=O)N[C@@H](C)C(=O)N1)C(=O)/C=C/c1cc[nH]n1` [Compound 129], for which the MIC was > 64 µg/mL in experiment [1] (setting [5]), 16 µg/mL (≈ 17.7 µM) in experiment [2] (setting [7]) and 4 µg/mL (≈ 4.43 µM) in experiment [3] (setting [7]).

On to `CCCCCCCCc1ccc(C(=O)N[C@@H](CCCN)C(=O)N(C)[C@@H]2C(=O)N[C@@H](C)C(=O)N[C@H](C(=O)N[C@@H](C)B(O)O)Cc3ccc(OCCN)c(c3)-c3cc2ccc3OCCN)c(F)c1` [Compound 322], for which the MIC amounted to 0.13 µg/mL (≈ 0.141 µM) in experiment [1] (setting [5]), 0.13 µg/mL (≈ 0.141 µM) in experiment [2] (setting [7]) and 0.063 µg/mL (≈ 0.0686 µM) in experiment [3] (setting [7]).

Turning to `CCCCc1ccc(-c2ccc(C(=O)N[C@@H](CCCCN)C(=O)N(C)[C@@H]3C(=O)N[C@@H](C)C(=O)N[C@H](C(=O)N[C@@H](C)B4O[C@@H]5C[C@@H]6C[C@@H](C6(C)C)[C@]5(C)O4)Cc4ccc(OCCN)c(c4)-c4cc3ccc4OCCN)cc2)cc1` [Compound 316], the MIC in experiment [1] (setting [5]) stood at 0.094 µg/mL (≈ 0.0879 µM); in experiment [2], 0.13 µg/mL (≈ 0.122 µM); in experiment [3] it was 0.031 µg/mL (≈ 0.029 µM).

As to `CCCCCCCCCCS(=O)(=O)N[C@@H](CCCCN)C(=O)N(C)[C@@H]1C(=O)N[C@@H](C)C(=O)N[C@H](C(=O)O)Cc2ccc(O)c(c2)-c2cc1ccc2O` [Compound 222], the MIC in experiment [1] (setting [5]) was > 64 µg/mL; in experiment [2] it was 16 µg/mL (≈ 21.4 µM); in experiment [3], 3 µg/mL (≈ 4.02 µM).

For the compound `CCCCCCCCCCS(=O)(=O)N[C@@H](CCCCN)C(=O)N(C)[C@@H]1C(=O)N[C@@H](C)C(=O)N[C@H](C(=O)N[C@@H](C)C(C)=O)Cc2ccc(OCCN)c(c2)-c2cc1ccc2OCCN.O=CO` [Compound 256], the “MIC (μg/mL) E. coli” value in experiment [1] (setting [8]) is >4 µg/mL. The “MIC (μg/mL) S. aureus” value in experiment [2] (setting [8]) is 0.063 µg/mL. Moreover, the “MIC (μg/mL) (COL)” value in experiment [3] (setting [8]) was 0.016 µg/mL.

Consider `CC(=O)[C@H](C)NC(=O)[C@@H]1Cc2ccc(O)c(c2)-c2cc(cc(CN)c2O)[C@H](N(C)C(=O)[C@H](CCCCN)NC(=O)c2ccc(-c3ccccc3)cc2)C(=O)N[C@@H](C)C(=O)N1` [Compound 210], for which the MIC in experiment [1] (setting [5]) stood at 32 µg/mL (≈ 39 µM); in experiment [2] (setting [7]) it was 32 µg/mL (≈ 39 µM); in experiment [3] (setting [7]) it was 4 µg/mL (≈ 4.88 µM).

On to `CCCCCCCCCCNCCC(=O)N[C@@H](CCCCN)C(=O)N(C)[C@@H]1C(=O)N[C@@H](C)C(=O)N[C@H](C(=O)N[C@@H](C)C(C)=O)Cc2ccc(OCCN)c(c2)-c2cc1ccc2OCCN.O=CO` [Compound 270], for which the “MIC (μg/mL) E. coli” value in experiment [1] (setting [7]) turned out to be 8 µg/mL. The “MIC (μg/mL) S. aureus” value in experiment [2] (setting [7]) is 0.25 µg/mL. The “MIC (μg/mL) (COL)” value in experiment [3] (setting [7]) was found to be 0.063 µg/mL.

`CCCCCCCCCCCCS(=O)(=O)N[C@@H](CCCCN)C(=O)N(C)[C@@H]1C(=O)N[C@@H](C)C(=O)N[C@H](C(=O)O)Cc2ccc(O)c(c2)-c2cc1ccc2O` [Compound 220]: the results for the MIC in experiment [1] (setting [5]), in experiment [2] and in experiment [3] were 16 µg/mL (≈ 20.7 µM), 2 µg/mL (≈ 2.58 µM) and 0.33 µg/mL (≈ 0.426 µM), respectively.

For the compound `CC(=O)[C@H](C)NC(=O)[C@@H]1Cc2ccc(O)c(c2)-c2cc(ccc2OCCO)[C@H](N(C)C(=O)[C@H](CCCCN)NC(=O)c2ccc(-c3ccc(Cl)cc3)cc2)C(=O)N[C@@H](C)C(=O)N1` [Compound 121], the MIC was 32 µg/mL (≈ 36.8 µM) in experiment [1] (setting [5]), 8 µg/mL (≈ 9.2 µM) in experiment [2] and 3 µg/mL (≈ 3.45 µM) in experiment [3].

With `COC(=O)/C=C/[C@H](C)NC(=O)[C@@H]1Cc2ccc(O)c(c2)-c2cc(ccc2O)[C@H](N(C)C(=O)[C@H](CCCCN)NC(=O)c2ccc(-c3ccc(Cl)cc3)cc2)C(=O)N[C@@H](C)C(=O)N1` [Compound 251], the MIC in experiment [1] (setting [5]) is > 64 µg/mL; in experiment [2] it was 64 µg/mL (≈ 73.8 µM); in experiment [3], 16 µg/mL (≈ 18.4 µM).

For the compound `C[C@@H]1NC(=O)[C@@H](N(C)C(=O)[C@H](CCCCN)NC(=O)c2ccc(-c3ccc(Cl)cc3)cc2)c2ccc(O)c(c2)-c2cc(ccc2O)C[C@@H](C(=O)N[C@@H](C)C(=O)N(C)[C@@H]2CCNC2=O)NC1=O` [Compound 138], the MIC in experiment [1] (setting [5]) is 64 µg/mL (≈ 69.3 µM); in experiment [2] it was 32 µg/mL (≈ 34.7 µM); in experiment [3] it was 17 µg/mL (≈ 18.4 µM).

Consider `CC(=O)[C@H](C)NC(=O)[C@@H]1Cc2ccc(O)c(c2)-c2cc(ccc2OCCN2CCN(C)CC2)[C@H](N(C)C(=O)[C@H](CCCCN)NC(=O)c2ccc(-c3ccc(Cl)cc3)cc2)C(=O)N[C@@H](C)C(=O)N1` [Compound 332], for which the MIC is 64 µg/mL (≈ 67.3 µM) in experiment [1] (setting [5]), 64 µg/mL (≈ 67.3 µM) in experiment [2] (setting [7]) and 8 µg/mL (≈ 8.41 µM) in experiment [3] (setting [7]).

With `CCCCCCCCc1ccc(C(=O)N[C@@H](CN)C(=O)N(C)[C@@H]2C(=O)N[C@@H](C)C(=O)N[C@H](C(=O)O)Cc3ccc(OCCN)c(c3)-c3cc2ccc3OCCN)cc1` [Compound 300], the MIC in experiment [1] (setting [6]) is 0.023 µg/mL (≈ 0.0287 µM); in experiment [2], 0.5 µg/mL (≈ 0.623 µM); in experiment [3], 0.13 µg/mL (≈ 0.162 µM).
